T1: Arisaema tortuosum lectin (ATL) (Arisaema tortuosum, UniProt A0A1L6CAS7)
T1 construct: 257-residue precursor, predicted signal peptide 1-23, two domains (DOM1 N26-P132, DOM2 N146-A254) separated by processing; 52 kDa heterotetramer 2 x (A + B)
T1 sequence (A0A1L6CAS7 24-257): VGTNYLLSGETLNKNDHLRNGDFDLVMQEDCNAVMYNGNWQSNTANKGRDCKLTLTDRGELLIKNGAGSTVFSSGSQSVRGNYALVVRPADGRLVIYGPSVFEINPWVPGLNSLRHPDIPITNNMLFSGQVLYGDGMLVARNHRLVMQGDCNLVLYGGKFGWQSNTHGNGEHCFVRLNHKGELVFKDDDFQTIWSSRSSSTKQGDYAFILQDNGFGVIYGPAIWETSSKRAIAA

B1: asialofetuin (natural protein)
chain: IPLDPVAGYKEPACDDPDTEQAALAAVDYINKHLPRGYKHTLNQIDSVKVWPRRPTGEVYDIEIDTLETTCHVLDPTPLANCSVRQQTQHAVEGDCDIHVLKQDGQFSVLFTKCDSSPDSAEDVRKLCPDCPLLAPLNDSRVVHAVEVALATFNAESNGSYLQLVEISRAQFVPLPVSVSVEFAVAATDCIAKEVVDPTKCNLLAEKQYGFCKGSVIQKALGGEDVRVTCTLFQTQPVIPQPQPDGAEAEAPSAVPDAAGPTPSAAGPPVASVVVGPSVVAVPLPLHRAHYDLRHTFSGVASVESSSGEAFHVGKTPIVGQPSIPGGPVRLCPGRIRYFKI
modifications: glycoprotein (complex glycoprotein, asialo form as named)

target: Arisaema tortuosum lectin (Arisaema tortuosum); experiment: ITC; MicroCal iTC200, 18 injections, fitted with a one site model; ATL dialysed against PBS; set-up as described in ref. 21; temperature not stated; details: not given

| Molecule | Ka [M⁻¹] |
| --- | --- |
| B1 | 116000 |

target: Arisaema tortuosum lectin (Arisaema tortuosum); experiment: ITC; MicroCal iTC200, 18 injections, data fitted to a one site model; ATL dialysed in PBS; which partner was in the syringe is not stated; details: not given

| Molecule | stoichiometry N |
| --- | --- |
| B1 | 0.32 |

target: T1, Arisaema tortuosum lectin (ATL); experiment: CFG glycan microarray v5.[…], biotinylated lectin, fluorescence; type: binding; details: glycan immobilised via spacer; mean over 10, 1.0 and 0.1 µg/ml lectin

| Molecule | Avg. rank^a |
| --- | --- |
| Mana1-6(Mana1-3)Mana1-6(Mana1-2Mana1-3)Manb1-4GlcNAcb1-4GlcNAcb-Sp12 [compound 216] | 37.3 average rank (from RFU) |
| Mana1-6(Mana1-3)Mana1-6(Mana1-3)Manb1-4GlcNAcb1-4GlcNAcb-Sp12 [compound 217] | 67.9 average rank (from RFU) |
| Galb1-3GlcNAcb1-2Mana1-6(Galb1-3GlcNAcb1-2Mana1-3)Manb1-4GlcNAcb1-4(Fuca1-6)GlcNAcb-Sp22 [compound 355] | 24.1 average rank (from RFU) |
| Galb1-4GlcNAcb1-6(Galb1-4GlcNAcb1-2)Mana1-6(Galb1-4GlcNAcb1-4(Galb1-4GlcNAcb1-2)Mana1-3)Manb1-4GlcNAcb1-4GlcNAcb-Sp21 [compound 388] | 51.9 average rank (from RFU) |
| Fuca1-2Galb1-4 GlcNAcb1-2Mana1-6(Fuca1-2Galb1-4GlcNAcb1-2(Fuca1-2Galb1-4GlcNAcb1-4)Mana1-3)Manb1-4GlcNAcb1-4GlcNAcb-Sp12 [compound 446] | 25.9 average rank (from RFU) |
| Mana1-6(Mana1-3)Manb1-4GlcNAcb1-4GlcNAcb-Sp13 [compound 51] | 87.6 average rank (from RFU) |
| Galb1-4GlcNAcb1-2Mana1-6(Galb1-4GlcNAcb1-4(Galb1-4GlcNAcb1-2)Mana1-3)Manb1-4GlcNAcb1-4GlcNAc-Sp21 [compound 370] | 24.5 average rank (from RFU) |
| Fuca1-2Galb1-4(Fuca1-3)GlcNAcb1-2Mana1-6(Fuca1-2Galb1-4(Fuca1-3)GlcNAcb1-2Mana1-3)Manb1-4GlcNAcb1-4(Fuca1-6)GlcNAcb-Sp24 [compound 473] | 20.0 average rank (from RFU) |
| Gala1-4Galb1-3GlcNAcb1-2Mana1-6(Gala1-4Galb1-3GlcNAcb1-2Mana1-3)Manb1-4GlcNAcb1-4GlcNAcb-Sp19 [compound 404] | 70.8 average rank (from RFU) |
| Galb1-3GlcNAcb1-2Mana1-6(Galb1-3GlcNAcb1-2Mana1-3)Manb1-4GlcNAcb1-4GlcNAcb-Sp19 [compound 325] | 57.7 average rank (from RFU) |
| GlcNAcb1-2Mana1-6(GlcNAcb1-4(GlcNAcb1-2)Mana1-3)Manb1-4GlcNAcb1-4GlcNAc-Sp21 [compound 389] | 85.5 average rank (from RFU) |
| GlcNAcb1-3Galb1-4GlcNAcb1-2Mana1-6(GlcNAcb1-3Galb1-4GlcNAcb1-2Mana1-3)Manb1-4GlcNAcb1-4(Fuca1-6)GlcNAcb-Sp24 [compound 575] | 20.6 average rank (from RFU) |
| Mana1-6(Mana1-3)Manb1-4GlcNAcb1-4(Fuca1-6)GlcNAcb-Sp19 [compound 485] | 62.5 average rank (from RFU) |
| Mana1-2Mana1-6(Mana1-3)Mana1-6(Mana1-2Mana1-2Mana1-3)Manb1-4GlcNAcb1-4GlcNAcb-Sp12 [compound 212] | 35.7 average rank (from RFU) |
| Mana1-6(Mana1-2Mana1-3)Mana1-6(Mana1-2Mana1-3)Manb1-4GlcNAcb1-4GlcNAcb-Sp12 [compound 211] | 30.4 average rank (from RFU) |
| Galb1-4GlcNAcb1-2Mana1-6(Mana1-3)Manb1-4GlcNAcb1-4GlcNAcb-Sp12 [compound 365] | 59.9 average rank (from RFU) |
| Mana1-6(Galb1-4GlcNAcb1-2Mana1-3)Manb1-4GlcNAcb1-4GlcNAcb-Sp12 [compound 352] | 15.5 average rank (from RFU) |
| GlcNAcb1-2Mana1-6(GlcNAcb1-2Mana1-3)Manb1-4GlcNAcb1-4GlcNAcb-Sp13 [compound 53] | 48.0 average rank (from RFU) |
| Galb1-4GlcNAcb1-3Galb1-4GlcNAcb1-2Mana1-6(Galb1-4GlcNAcb1-3Galb1-4GlcNAcb1-2Mana1-3)Manb1-4GlcNAcb1-4(Fuca1-6)GlcNAcb-Sp24 [compound 576] | 20.9 average rank (from RFU) |
| Galb1-4GlcNAcb1-2Mana1-6(GlcNAcb1-2Mana1-3)Manb1-4GlcNAcb1-4GlcNAc-Sp12 [compound 399] | 13.8 average rank (from RFU) |
